From a melting point compilation (Tetko et al.; mined from patent text by program, amines drawn as free bases though some values may be those of a salt)

melting point [°C] | SMILES
105 | COC(=O)c1cccc(NC(=O)c2ccccc2)c1O
152 to 154 | Cc1ccc(Nc2c(F)cccc2Cl)c(CC(=O)O)c1
203 to 205 | CC1(c2ccccc2)C(=O)c2c(cc(OCC(=O)O)c(Cl)c2Cl)C1c1ccccc1 (stereo not drawn)
168 to 169 | O=C(O)CNC(=O)c1ccc(OCc2ccccc2)cc1OCc1ccccc1
109 to 111 | CCCC(C)N1CCC2(CC1)CSC1=C(O2)c2ccccc2C(=O)C1=O (stereo not drawn)
147 to 149 | COC1C(=O)N=C(NC(=O)Nc2cccc(Cl)c2)N1C (stereo not drawn)
114 to 115 | COC(=O)C=C(Nc1cc2c(cc1OCc1ccccc1)N(C(=O)OC(C)(C)C)CC2COC(C)=O)C(F)(F)F (stereo not drawn)
143 to 146 | C[C@H](CSC(=O)c1ccc(Cl)c(S(N)(=O)=O)c1)C(=O)N1CCC[C@H]1C(=O)O
97 to 99 | COC(=O)/C=C/C=C(/c1ccc(OC)cc1)c1cccs1
129 to 130 | CCc1ccc(C(O)COc2ccc(CC3SC(=O)NC3=O)cc2)nc1 (stereo not drawn)
166 to 170 | CCC1(CC)Oc2ccc(C#N)cc2[C@@H](OC2=CC(=O)CC2)[C@@H]1O (relative stereo)
142 to 143 | CCOc1nn(-c2ccc(C(F)(F)F)cn2)cc1CCCOc1cc(CC(=O)O)ccc1OC
96 to 98 | COC(=O)CCSCc1csc(NC(N)=NCC(F)(F)F)n1
52 to 53 | CCCOC1(C=CCCCCC(=O)O)C=CC=CC1 (stereo not drawn)
165 | Cc1cccc(N(CCC(=O)O)Cc2ccc3nc(N)n(Cc4nc(C)ccc4O)c3c2)c1
204 | COc1cc2c(cc1OC)CN(CCCCc1ccc(NC(=O)c3cccc4c(=O)cc(-c5ccccc5)[nH]c34)cc1)CC2
165 to 166 | CC1CC(=O)NN=C1c1ccc(NC(=O)OCc2cccc(Cl)c2)cc1 (stereo not drawn)
156 to 157 | CCCC1=C(C(=O)OCC)C(c2ccccc2Cl)c2cn(C(=O)Oc3ccccc3)nc2N1 (stereo not drawn)
72 to 78 | CCCCc1oc2ccccc2c1C(=O)N(C)Cc1ccc(-c2ccc(OCC(=O)O)c(Br)c2)cc1
160 to 162 | CC(=O)NCCCCNc1ccc(NCCN(C)C)c2c1C(=O)c1ccccc1C2=O
158 | COC1C=C(C)C(=O)CC(C)(C)C1OC(=O)c1ccccc1C(=O)O (stereo not drawn)
91 to 93 | CCCCCC(=O)c1cn(S(=O)(=O)c2ccc(C)cc2)c2ccccc12
180 to 183 | COc1ccc(C(=O)O)cc1OC(=O)c1ccccc1
111 to 113 | CCCCCS(=O)(=O)NC(=O)CCc1ccc(OCC(=O)N(CC)CC)cc1Oc1ncc(C(F)(F)F)cc1Cl

Continued, molecule first:

SMILES | melting point [°C]
COc1ccc(C(=O)Nc2ccccc2)cc1NC(=S)Nc1cccc(C(=O)O)c1 | 196 to 197
CSc1ccc(Oc2cccc(C=O)n2)cc1 | 60 to 63
Cc1ccnc(-c2ccoc2)c1OC1SCC(O)C(O)C1O (stereo not drawn) | 95
CC(C)Oc1c(CO)cnc2c(C(F)(F)F)cccc12 | 73 to 74
COC[C@@H](O)CN1CCC(c2ccc(-c3nc4c(N[C@H]5[C@@H](C(N)=O)[C@@H]6C=C[C@H]5C6)c(Cl)cnc4[nH]3)c(OC)c2)CC1 | 189 to 191
C#CCn1c(Br)c(C[C@H](NC(C)=O)C(=O)OC)c2c(Br)c(OC)c(Br)cc21 | 284 to 285
CC(=O)Nc1ccc([N+](=O)[O-])cc1O | > 250
O=c1[nH]nc2c3c(cccc13)N=C(CN1CCCN(Cc3ccc(F)cc3)CC1)N2 | 163 to 165
NS(=O)(=O)c1cc(C(=O)O)cc(SCc2ccsc2)c1Oc1ccccc1 | 222 to 224
Oc1nc(C2CC2)nc2c1SCCC2 | 249 to 250
CC(=O)OC[C@H]1NC(=O)[C@H]1NC(=O)C(=NOC(C)(C)C(=O)OCc1ccc([N+](=O)[O-])cc1)c1csc(NC(=O)CCl)n1 (relative stereo) | 120 to 123
COc1nsc(Cl)c1Cl | 46 to 48
CC(=O)CC(=O)N1N=C(c2ccc([N+](=O)[O-])cc2)c2cc3c(cc2CC1C)OCO3 (stereo not drawn) | 169 to 171
NS(=O)(=O)C=Cc1ccc(Cl)c(Cl)c1 | 127 to 130
CON1C=C2N=NC3=C(N(CC(C)C)CC(C)=C3)N2C1 | 144 to 145
Nc1noc2cc3c(cc12)C1(CO3)C(=O)N(Cc2ccccc2C(F)(F)F)c2ccccc21 (stereo not drawn) | 262 to 264
O=C1Nc2nncn2CC1c1ccccc1 (stereo not drawn) | 184 to 186
N#Cc1ccc(-c2ccn(-c3ccc(C#N)cc3)c2)cc1 | 234 to 240
O=C1NC(=O)c2c1c(-c1ccccc1)cc1[nH]c3ccc(OP(=O)(O)O)cc3c21 | 285 to 295
N=C(NC(=O)Nc1ccc([N+](=O)[O-])cc1)c1ccccc1 | 188 to 191
N#CCC1(c2onc(-c3ccc(O)cc3)c2-c2ccccc2)CC1 | 189 to 190
COC1=CCc2cccc(N)c2C1 | 84 to 85

SMILES | melting point [°C]
COCCNC(=O)c1cc(-c2ccccc2)c(=O)[nH]c1-c1c(Cl)cccc1C#N | 252 to 255
COc1ccc(C=Nc2c3c(nc4ccccc24)CCCC3)cc1 | 160 to 162
COc1cc(C=CC(=O)Nc2cnc3c(C)cc(C)cc3c2-c2ccc(F)cc2)cc(OC)c1OC(C)=O | 260 to 261
CCc1cc(Cl)c2cccc(OC)c2n1 | 80 to 81
CCOCc1nc2c(N)nc3cc(-c4cccnc4)ccc3c2n1CC1CCN(C(=O)OC(C)(C)C)CC1 | 197 to 198
Cc1cc(C)c(C(C)(C)O)c(C)c1 | 106 to 107
CN(C)c1cccc(CC(=O)Cc2cccc(Cl)c2)c1 | 58 to 60
COc1cc2nc(S(=O)Cc3ncc(C)c(N(C)C)c3Cl)[nH]c2cc1OC (stereo not drawn) | 174 to 175
Cc1cc(C)c(-c2ccnc(Nc3ccc(F)cc3)n2)[nH]1 | 168 to 172
CC(C)c1cccc(C(C)C)c1NC(=O)N(Cc1ccc(O)cc1)CC1(c2cccc(N(C)C)c2)CCCCC1 | 166 to 168
CC(=O)OCC1OC(n2c(Cl)nc3c(Br)c(Br)ccc32)C(OC(C)=O)C1OC(C)=O (stereo not drawn) | 129 to 130
C=CC(=O)N1CCSc2ccccc2C1 | 108 to 110
CCC(CC)c1ccc(Cl)c2nc3n(c12)CCCCN3c1ccc(N(C)C)cc1C | 174 to 175
CCc1c(-c2ccc(OCc3ccccc3)cc2)c2c(C(=O)O)c(C(=O)O)c3c(OCc4ccccc4)ccc1n32 | 151 to 161
Cc1ccc(C)c(NC(=S)N2CCC(c3nc(C4=NOC(c5ccccc5)C4)cs3)CC2)c1 (stereo not drawn) | 120 to 123
Cc1oncc1-c1cncc(OC2SCC(O)C(O)C2O)c1 (stereo not drawn) | 209
Cc1cccn2cc(C(C)C)c(S(=O)(=O)c3ccc(O)cc3)c12 | 191 to 193
Cc1cc(C)n(C(=O)CNS(=O)(=O)c2ccc(C3CCCCC3)cc2)n1 | 138
CC1(C)CON(Cc2ccc(N3C(=O)C4=C(CCCC4)C3=O)cc2Cl)C1=O | 102 to 104
FC(F)(F)c1cc2ncccc2cc1Cl | 137 to 139
COc1ccc(-c2nn(CC=Cc3ccccc3)c(=O)cc2-c2ccccc2)cc1 | 136 to 137
Cc1ccc2cccc(OCc3c(C)ccc(NC(=O)CN4C(=O)c5ccccc5C4=O)c3C)c2n1 | 266 to 268
